Laboratory results taken from US20150344540A1, “NOVEL GLP-1 RECEPTOR AGONISTS WITH CHOLESTEROL EFFLUX ACTIVITY” (NOVO NORDISK A/S, priority 2012, published 2015).

What was measured:
[1] = Mechanical stress experiment, Thioflavin T fibrillation assay; assay type: physicochemical; details: 45 hour mechanical stress, 37° C., samples A-D
Procedure: In order to determine the physical stability of peptides in solution an accelerated mechanical stress assay was performed. Samples were prepared just before starting the assay. Samples may be prepared in the pH range 3-9 and with peptide concentrations in the range 0-20 mM. Samples may contain buffers such as phosphate, acetate, Tris. Samples may contain antimicrobial preservatives such as phenol or m-cresol.
The pH of the sample was adjusted to the desired value using NaOH and HCl. Thioflavin T was added to the samples from a stock solution in H2O to a final concentration of 5 μM.
Aliquots of each sample were transferred to a 96 well microtiter plate (Packard OptiPlate™-96, white polystyrene) with 200 μL in each well. For each sample data may be recorded for one well or for two or more replicas (two or more wells). […]
Incubation at a selected temperature, mechanical stress and measurement of Thioflavin T fluorescence was performed using a Fluoroskan Ascent FL fluorescence platereader (Thermo Labsystems). […] Fluorescence measurement was performed using excitation through a 444 nm filter and measurement of emission through a 485 nm filter. The fluorescence was measured every 20 minutes during the experiment.
The fluorescence from Thioflavin T was plotted against duration of mechanical stress. A substantial increase in fluorescence from Thioflavin T indicates amyloid fibril formation. […]

human GLP-1 receptor = human GLP-1 receptor (Homo sapiens, UniProt P43220); test: Functional GLP-1 receptor assay, in vitro potency (CRE luciferase; whole cells); assay type: cell-based; details: GLP1R CRE luc 1% HSA EC50 Mean Value, BHK cells expressing human GLP-1 receptor, 1% HSA
pH solubility assay = assay type: physicochemical; design: unit not given here; details: two days at 25° C.
Procedure: One approach is to make a pH gradient from a buffer mix consisting of two buffers (e.g. citrate 100 mM/phosphate 200 mM), spike with a concentrated sample stock, and then leave the samples for 2 days at ambient temperature. […] Samples were incubated for two days at 25° C., centrifuged at 4700 g, and the concentration measured in the supernatant on a Nanodrop UV spectrophotometer (Thermo Fischer Scientific, Waltham, Mass.) using a theoretical extinction coefficient of 6,990 cm^−1M^−1.

[2] = Pharmacokinetics in normal mice after i.v. and s.c. administration; assay type: in vivo, female C57B1/6J mice
Procedure: The mice, 60 female C57B1/6J were purchased from Taconic, arriving at Novo Nordisk A/S Animal Unit at 6-7 weeks of age. The mice were housed according to standard rules in the animal unit and given free access to standard chow and tap water. The animals were kept at a room temperature and housed in groups of 8 mice, with free access to food and water, according to Animal Unit's SOP (Housing of experimental animals at Novo Nordisk A/S).
Peptide is administered as a single dose either s.c. or i.v.
After the 2nd sample the mice were sacrificed. The plasma concentrations of the compounds with intact N-terminus were determined using a Luminescence Oxygen Chanelling Immuno-assay (LOCI). The donor beads were coated with streptavidin, while acceptor beads were conjugated with a monoclonal antibody recognizing a mid-/C-terminal epitope of the peptide. The other monoclonal antibody, specific for the N-terminus, was biotinylated. The three reactants were combined with the analyte and formed a two-sited immuno-complex. Illumination of the complex released singlet oxygen atoms from the donor beads, which were channeled into the acceptor beads and triggered chemiluminescence which was measured in an Envision plate reader. The amount of light was proportional to the concentration of the compound.

[3] = female, C57B1/6J, mouse, plasma, sc

Chain of human GLP-1 receptor (P43220 24-463): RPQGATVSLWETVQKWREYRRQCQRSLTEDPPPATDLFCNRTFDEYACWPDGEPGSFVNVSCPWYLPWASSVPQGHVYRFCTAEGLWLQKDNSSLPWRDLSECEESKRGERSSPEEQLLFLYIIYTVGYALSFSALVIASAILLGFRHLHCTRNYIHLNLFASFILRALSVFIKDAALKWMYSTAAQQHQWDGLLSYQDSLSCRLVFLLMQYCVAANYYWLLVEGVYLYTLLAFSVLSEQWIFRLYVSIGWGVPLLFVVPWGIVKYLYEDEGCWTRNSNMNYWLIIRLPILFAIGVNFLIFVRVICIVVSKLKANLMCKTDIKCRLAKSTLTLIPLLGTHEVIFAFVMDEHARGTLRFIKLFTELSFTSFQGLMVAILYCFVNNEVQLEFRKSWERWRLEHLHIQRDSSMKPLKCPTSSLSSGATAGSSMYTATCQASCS

## CC[C@H](C)[C@H](NC(=O)[C@H](Cc1ccccc1)NC(=O)[C@H](CCC(=O)O)NC(=O)[C@H](CCCCN)NC(=O)[C@@H](NC(=O)[C@H](C)NC(=O)[C@H](CCC(=O)O)NC(=O)CNC(=O)[C@H](CCC(=O)O)NC(=O)[C@H](CC(C)C)NC(=O)[C@H](Cc1ccc(O)cc1)NC(=O)[C@H](CO)NC(=O)[C@H](CO)NC(=O)[C@@H](NC(=O)[C@H](CC(=O)O)NC(=O)[C@H](CO)NC(=O)[C@@H](NC(=O)[C@H](Cc1ccccc1)NC(=O)[C@@H](NC(=O)CNC(=O)[C@H](CCC(=O)O)NC(=O)C(C)(C)NC(=O)[C@@H](N)Cc1c[nH]cn1)[C@@H](C)O)[C@@H](C)O)C(C)C)C(C)C)C(=O)N[C@@H](C)C(=O)N[C@@H](Cc1c[nH]c2ccccc12)C(=O)N[C@@H](CC(C)C)C(=O)N[C@H](C(=O)N[C@@H](CCC(=O)O)C(=O)N[C@@H](CCCCN)C(=O)NC(C)(C)C(=O)N[C@@H](CCCCN)C(=O)N[C@@H](CCC(=O)O)C(=O)N[C@@H](Cc1ccccc1)C(=O)N[C@@H](CC(C)C)C(N)=O)C(C)C [Compound 1, [Aib8,Glu23,Val25,Glu34,Lys35,Aib36,Lys37]-GLP-1-(7-37)-peptidyl-Glu-Phe-Leu amide]
[1]
  fibril formation (Thioflavin T fluorescence): did not show signs of fibril formation
Human GLP-1 receptor
  EC50: 0.111 nM
pH solubility assay; pH meas. 4.15, citrate 100 mM/phosphate 200 mM
  Conc. supernatant: 0.009
pH solubility assay; pH meas. 4.50, citrate 100 mM/phosphate 200 mM
  Conc. supernatant: 0.002
pH solubility assay; pH meas. 4.95, citrate 100 mM/phosphate 200 mM
  Conc. supernatant: 0.005
pH solubility assay; pH meas. 5.29, citrate 100 mM/phosphate 200 mM
  Conc. supernatant: 0.021
pH solubility assay; pH meas. 5.75, citrate 100 mM/phosphate 200 mM
  Conc. supernatant: 0.270
pH solubility assay; pH meas. 6.10, citrate 100 mM/phosphate 200 mM
  Conc. supernatant: 0.228
pH solubility assay; pH meas. 6.42, citrate 100 mM/phosphate 200 mM
  Conc. supernatant: 0.234
pH solubility assay; pH meas. 6.76, citrate 100 mM/phosphate 200 mM
  Conc. supernatant: 0.249
pH solubility assay; pH meas. 7.21, citrate 100 mM/phosphate 200 mM
  Conc. supernatant: 0.233
pH solubility assay; pH meas. 7.65, citrate 100 mM/phosphate 200 mM
  Conc. supernatant: 0.244
pH solubility assay; pH meas. 8.29, citrate 100 mM/phosphate 200 mM
  Conc. supernatant: 0.254
pH solubility assay; pH meas. 8.65, phosphate 200 mM only
  Conc. supernatant: 0.247
[2]; female, C57B1/6J, mouse, plasma, iv
  half-life: 6.7 h
[2]; female, C57B1/6J, mouse, plasma, iv, read-out: Volume of distribution
  Vd: 0.0456 L/kg
[2]; [3]
  Tmax: 4 h
  half-life: 11.5 h
[2]; mice, i.v., Compound 1 dose 99 nmol/kg, Compound 5 dose 135 nmol/kg
  clearance: 4.69 mL/h/kg
[2]; mice, s.c., Compound 1 dose 323 nmol/kg, Compound 5 dose 62 nmol/kg
  Volume of distribution: 0.1592 L/kg
